# Source: patent US10919916B2, “Boron-containing small molecules” (Bill & Melinda Gates Foundation, priority 2016, dated 2021)
# pEC50: −log10 of the molar value. Like-named read-outs stand apart in the source and are kept apart here.
# Experiments:
# Type in all cases: cell-based
# [1] = test system: Staphylococcus aureus, MRSA (ATCC 33591); test: Antibacterial MIC assay (microbroth dilution, CLSI); conditions: read-out: MIC Staphylococcus aureus, MRSA (ATCC 33591)
# Procedure, shortened: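 Microbroth dilution per CLSI M07-A10/M100-S25 in cation-adjusted Mueller-Hinton broth, with 3% lysed horse blood added for S. pneumoniae. Inoculum from a 0.5 McFarland direct colony suspension, diluted to 5×10^5 CFU/mL in the well. Compounds were 2-fold serially diluted; MIC read against a growth control.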
# [2] = test system: Wolbachia pipientis in C6/36 cell line; test: Anti-Wolbachia high-content assay; conditions: read-out: EC50 Wolbachia pipientis in C6/36 cell line
# Description: After 15 minutes, all media was removed from each well and fresh media (no stain) was added. Imaging of each well was accomplished using a Perkin Elmer Operetta high-content imaging system. Five fields per well were imaged using a confocal 60× objective with the Fluorescein filter (excitation filter: 460-490 nm; emission filter: 500-550 nm). Images were analyzed using the Perkin Elmer Harmony software to score each intact cell on the basis of texture complexity of the cytoplasm. Full details can be found in: […]. et al, J. Biomol.
# [3] = test system: Streptococcus pneumoniae (ATCC 49619); test: Antibacterial MIC assay (microbroth dilution, CLSI)
# Procedure, shortened: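 CLSI broth microdilution: 2-fold compound dilutions in cation-adjusted Mueller-Hinton broth supplemented with 3% lysed horse blood for S. pneumoniae, inoculum 5×10^5 CFU/mL from a 0.5 McFarland direct colony suspension, with growth control.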
# [4] = microbroth dilution, cation-adjusted Mueller-Hinton broth, 35° C. for 16-20 hours
# [5] = C6/36 (wAlbB) cells, 7 days at 26° C., 50% reduction of Wolbachia
# [6] = ATCC49619, microbroth dilution, 3% lysed horse blood, 35° C. for 16-20 hours, read-out: MIC Streptococcus pneumoniae (ATCC 49619)
# [7] = ATCC49619, read-out: MIC Streptococcus pneumoniae (ATCC 49619)
SMILES,"MIC [1, 4]","pEC50 [2, 5]","MIC [3, 6]",MIC [1],"pEC50 ([2]; C6/36, […])","MIC [3, 7]"
"C=C[C@]1(C)C[C@@H](OC(=O)COc2cc(CNC(=O)OC(C)(C)C)c3c(c2)B(O)OC3)[C@]2(C)[C@H](C)CC[C@]3(C[C@H](O)C(=O)[C@H]32)[C@@H](C)[C@@H]1O [Compound 41, (2S,3aR,4R,5R,7S,8S,9R,9aS,12R)-2,8-dihydroxy-4,7,9,12-tetramethyl-3-oxo-7-vinyldecahydro-4,9a-propanocyclopenta[8]annulen-5-yl 2-((4-(((tert-butoxycarbonyl)amino)methyl)-1-hydroxy-1,3-dihydrobenzo[c][1,2]oxaborol-6-yl)oxy)acetate]",0.5 to 2 µg/mL,6.20,0.5 to 2 µg/mL,,,
"C=C[C@]1(C)C[C@@H](OC(=O)NC(=O)c2ccc3c(c2)B(O)OC3)[C@]2(C)[C@H](C)CC[C@]3(CCC(=O)[C@H]32)[C@@H](C)[C@@H]1O [Compound 58, (3aR,4R,5R,7S,8S,9R,9aS,12R)-8-hydroxy-4,7,9,12-tetramethyl-3-oxo-7-vinyldecahydro-4,9a-propanocyclopenta[8]annulen-5-yl (1-hydroxy-1,3-dihydrobenzo[c][1,2]oxaborole-6-carbonyl)carbamate]",< 0.25 µg/mL,7.25,0.5 to 2 µg/mL,,,
"C=C[C@]1(C)C[C@@H](OC(=O)COc2ccc3c(c2)B(O)OC3)[C@]2(C)[C@H](C)CC[C@]3(C[C@H](F)C(=O)[C@H]32)[C@@H](C)[C@@H]1O [Compound 38, (2S,3aR,4R,5R,7S,8S,9R,9aS,12R)-2-fluoro-8-hydroxy-4,7,9,12-tetramethyl-3-oxo-7-vinyldecahydro-4,9a-propanocyclopenta[8]annulen-5-yl 2-((1-hydroxy-1,3-dihydrobenzo[c][1,2]oxaborol-6-yl)oxy)acetate]",< 0.25 µg/mL,8.05,0.5 to 2 µg/mL,,,
"C=C[C@]1(C)C[C@@H](OC(=O)COc2ccc3c(c2)B(O)NN=C3)[C@]2(C)[C@H](C)CC[C@]3(C[C@H](F)C(=O)[C@H]32)[C@@H](C)[C@@H]1O [Compound 74, (2S,3aR,4R,5R,7S,8S,9R,9aS,12R)-2-fluoro-8-hydroxy-4,7,9,12-tetramethyl-3-oxo-7-vinyldecahydro-4,9a-propanocyclopenta[8]annulen-5-yl 2-((1-hydroxy-1,2-dihydrobenzo[d][1,2,3]diazaborinin-7-yl)oxy)acetate]",< 0.25 µg/mL,8.40,< 0.25 µg/mL,,,
"C=C[C@]1(C)C[C@@H](OC(=O)COc2ccc3c(c2F)B(O)NN=C3)[C@]2(C)[C@H](C)CC[C@]3(CCC(=O)[C@H]32)[C@@H](C)[C@@H]1O [Compound 81, (3aR,4R,5R,7S,8S,9R,9aS,12R)-8-hydroxy-4,7,9,12-tetramethyl-3-oxo-7-vinyldecahydro-4,9a-propanocyclopenta[8]annulen-5-yl 2-((8-fluoro-1-hydroxy-1,2-dihydrobenzo[d][1,2,3]diazaborinin-7-yl)oxy)acetate]",,,,< 0.25 µg/mL,7.47,< 0.25 µg/mL
"C=C[C@]1(C)C[C@@H](OC(=O)COc2cc(CNC(=O)OC(C)(C)C)c3c(c2Cl)B(O)OC3)[C@]2(C)[C@H](C)CC[C@]3(CCC(=O)[C@H]32)[C@@H](C)[C@@H]1O [Compound 7, (3aR,4R,5R,7S,8S,9R,9aS,12R)-8-hydroxy-4,7,9,12-tetramethyl-3-oxo-7-vinyldecahydro-4,9a-propanocyclopenta[8]annulen-5-yl 2-((4-(((tert-butoxycarbonyl)amino)methyl)-7-chloro-1-hydroxy-1,3-dihydrobenzo[c][1,2]oxaborol-6-yl)oxy)acetate]",,,,0.5 to 2 µg/mL,6.37,4 to 32 µg/mL
"C=C[C@]1(C)C[C@@H](OC(=O)CNc2ccc3c(c2)B(O)OC32CCNCC2)[C@]2(C)[C@H](C)CC[C@]3(CCC(=O)[C@H]32)[C@@H](C)[C@@H]1O [Compound 53, (3aR,4R,5R,7S,8S,9R,9aS,12R)-8-hydroxy-4,7,9,12-tetramethyl-3-oxo-7-vinyldecahydro-4,9a-propanocyclopenta[8]annulen-5-yl (1-hydroxy-1H-spiro[benzo[c][1,2]oxaborole-3,4′-piperidin]-6-yl)glycinate]",4 to 32 µg/mL,< 6.00,0.5 to 2 µg/mL,,,
"C=C[C@]1(C)C[C@@H](OC(=O)COc2ccc3c(c2Cl)B(O)OC3CNC(=O)OC(C)(C)C)[C@]2(C)[C@H](C)CC[C@]3(CCC(=O)[C@H]32)[C@@H](C)[C@@H]1O (stereo partly drawn) [Compound 30, (3aR,4R,5R,7S,8S,9R,9aS,12R)-8-hydroxy-4,7,9,12-tetramethyl-3-oxo-7-vinyldecahydro-4,9a-propanocyclopenta[8]annulen-5-yl 2-((3-(((tert-butoxycarbonyl)amino)methyl)-7-chloro-1-hydroxy-1,3-dihydrobenzo[c][1,2]oxaborol-6-yl)oxy)acetate]",,,,0.5 to 2 µg/mL,< 6.00,4 to 32 µg/mL
"C=C[C@]1(C)C[C@@H](OC(=O)COc2ccc3c(c2F)B(O)OC3)[C@]2(C)[C@H](C)CC[C@]3(C[C@H](F)C(=O)[C@H]32)[C@@H](C)[C@@H]1O [Compound 39, (2S,3aR,4R,5R,7S,8S,9R,9aS,12R)-2-fluoro-8-hydroxy-4,7,9,12-tetramethyl-3-oxo-7-vinyldecahydro-4,9a-propanocyclopenta[8]annulen-5-yl 2-((7-fluoro-1-hydroxy-1,3-dihydrobenzo[c][1,2]oxaborol-6-yl)oxy)acetate]",< 0.25 µg/mL,7.08,0.5 to 2 µg/mL,,,
"C=C[C@]1(C)C[C@@H](OC(=O)COc2ccc3c(c2C)B(O)N(C(=O)OC)N=C3)[C@]2(C)[C@H](C)CC[C@]3(C[C@H](F)C(=O)[C@H]32)[C@@H](C)[C@@H]1O [Compound 95, Methyl 7-(2-(((2S,3aR,4R,5R,7S,8S,9R,9aS,12R)-2-fluoro-8-hydroxy-4,7,9,12-tetramethyl-3-oxo-7-vinyldecahydro-4,9a-propanocyclopenta[8]annulen-5-yl)oxy)-2-oxoethoxy)-1-hydroxy-8-methylbenzo[d][1,2,3]diazaborinine-2(1H)-carboxylate]",< 0.25 µg/mL,7.34,< 0.25 µg/mL,,,
"C=C[C@]1(C)C[C@@H](OC(=O)COc2ccc3c(c2)B(O)OC3CC(=O)OC(C)(C)C)[C@]2(C)[C@H](C)CC[C@]3(CCC(=O)[C@H]32)[C@@H](C)[C@@H]1O (stereo partly drawn) [Compound 24, tert-Butyl 2-(1-hydroxy-6-(2-(((3aR,4R,5R,7S,8S,9R,9aS,12R)-8-hydroxy-4,7,9,12-tetramethyl-3-oxo-7-vinyldecahydro-4,9a-propanocyclopenta[8]annulen-5-yl)oxy)-2-oxoethoxy)-1,3-dihydrobenzo[c][1,2]oxaborol-3-yl)acetate]",< 0.25 µg/mL,< 6.00,0.5 to 2 µg/mL,,,
"C=C[C@]1(C)C[C@@H](OC(=O)COc2cc3c(cc2F)COB3O)[C@]2(C)[C@H](C)CC[C@]3(C[C@H](O)C(=O)[C@H]32)[C@@H](C)[C@@H]1O [Compound 37, (2S,3aR,4R,5R,7S,8S,9R,9aS,12R)-2,8-dihydroxy-4,7,9,12-tetramethyl-3-oxo-7-vinyldecahydro-4,9a-propanocyclopenta[8]annulen-5-yl 2-((5-fluoro-1-hydroxy-1,3-dihydrobenzo[c][1,2]oxaborol-6-yl)oxy)acetate]",< 0.25 µg/mL,7.28,0.5 to 2 µg/mL,,,
"C=C[C@]1(C)C[C@@H](OC(=O)COc2ccc3c(c2)B(O)ON=C3)[C@]2(C)[C@H](C)CC[C@]3(C[C@H](F)C(=O)[C@H]32)[C@@H](C)[C@@H]1O [Compound 99, (2S,3aR,4R,5R,7S,8S,9R,9aS,12R)-2-fluoro-8-hydroxy-4,7,9,12-tetramethyl-3-oxo-7-vinyldecahydro-4,9a-propanocyclopenta[8]annulen-5-yl 2-((1-hydroxy-1H-benzo[d][1,2,6]oxazaborinin-7-yl)oxy)acetate]",0.5 to 2 µg/mL,7.89,0.5 to 2 µg/mL,,,
"C=C[C@]1(C)C[C@@H](OC(=O)COc2ccc3c(c2)B(O)N(S(C)(=O)=O)N=C3)[C@]2(C)[C@H](C)CC[C@]3(C[C@H](F)C(=O)[C@H]32)[C@@H](C)[C@@H]1O [Compound 79, (2S,3aR,4R,5R,7S,8S,9R,9aS,12R)-2-fluoro-8-hydroxy-4,7,9,12-tetramethyl-3-oxo-7-vinyldecahydro-4,9a-propanocyclopenta[8]annulen-5-yl 2-((1-hydroxy-2-(methylsulfonyl)-1,2-dihydrobenzo[d][1,2,3]diazaborinin-7-yl)oxy)acetate]",0.5 to 2 µg/mL,7.25,0.5 to 2 µg/mL,,,
"C=C[C@]1(C)C[C@@H](OC(=O)COc2ccc3c(c2)B(O)NN=C3)[C@]2(C)[C@H](C)CC[C@]3(C[C@H](O)C(=O)[C@H]32)[C@@H](C)[C@@H]1O [Compound 70, (2S,3aR,4R,5R,7S,8S,9R,9aS,12R)-2,8-dihydroxy-4,7,9,12-tetramethyl-3-oxo-7-vinyldecahydro-4,9a-propanocyclopenta[8]annulen-5-yl 2-((1-hydroxy-1,2-dihydrobenzo[d][1,2,3]diazaborinin-7-yl)oxy)acetate]",0.5 to 2 µg/mL,7.92,< 0.25 µg/mL,,,
